The source of these data is ChEMBL document CHEMBL5653615 (J Biol Chem, 2013).

The target in assay [1] is Calcium/calmodulin-dependent protein kinase type II subunit alpha (Homo sapiens) (UniProt Q9UQM7). As to the kind of experiment: Inhibition of human CAMK2a at 1.82 nM by HotSpot assay relative to control.
Assay [2] concerns the target Focal adhesion kinase 1 (Homo sapiens) (UniProt Q05397). The assay is described as follows: Inhibition of human FAK at 1.82 nM by HotSpot assay relative to control.
The target of assay [3] is T1, MAP/microtubule affinity-regulating kinase 4 (Homo sapiens) (UniProt Q96L34).
T1 sequence (whole entry): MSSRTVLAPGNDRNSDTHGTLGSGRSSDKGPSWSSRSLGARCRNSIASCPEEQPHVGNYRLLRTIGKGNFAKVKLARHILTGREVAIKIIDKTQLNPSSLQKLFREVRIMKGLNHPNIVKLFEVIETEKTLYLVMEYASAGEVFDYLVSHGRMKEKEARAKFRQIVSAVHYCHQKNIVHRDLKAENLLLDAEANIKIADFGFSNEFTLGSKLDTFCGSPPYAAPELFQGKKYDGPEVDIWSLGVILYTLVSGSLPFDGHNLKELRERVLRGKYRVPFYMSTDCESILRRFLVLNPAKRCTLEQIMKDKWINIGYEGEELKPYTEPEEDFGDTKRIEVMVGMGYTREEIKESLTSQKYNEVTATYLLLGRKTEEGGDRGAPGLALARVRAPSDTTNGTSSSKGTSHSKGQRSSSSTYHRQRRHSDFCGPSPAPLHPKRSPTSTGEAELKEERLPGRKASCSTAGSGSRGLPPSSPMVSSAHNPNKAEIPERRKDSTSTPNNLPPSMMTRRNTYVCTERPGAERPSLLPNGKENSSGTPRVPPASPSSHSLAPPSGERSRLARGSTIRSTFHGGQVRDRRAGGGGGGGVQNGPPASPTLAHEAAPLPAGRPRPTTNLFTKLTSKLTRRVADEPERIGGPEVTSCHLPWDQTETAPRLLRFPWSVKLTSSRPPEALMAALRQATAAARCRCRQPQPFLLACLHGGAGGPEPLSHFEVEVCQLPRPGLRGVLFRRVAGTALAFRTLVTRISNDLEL
As to the kind of experiment: Inhibition of human MARK4 at 1.82 nM by HotSpot assay relative to control.

In assay [4] the target is T2, Dual serine/threonine and tyrosine protein kinase (Homo sapiens) (UniProt Q6XUX3).
T2 sequence (whole entry): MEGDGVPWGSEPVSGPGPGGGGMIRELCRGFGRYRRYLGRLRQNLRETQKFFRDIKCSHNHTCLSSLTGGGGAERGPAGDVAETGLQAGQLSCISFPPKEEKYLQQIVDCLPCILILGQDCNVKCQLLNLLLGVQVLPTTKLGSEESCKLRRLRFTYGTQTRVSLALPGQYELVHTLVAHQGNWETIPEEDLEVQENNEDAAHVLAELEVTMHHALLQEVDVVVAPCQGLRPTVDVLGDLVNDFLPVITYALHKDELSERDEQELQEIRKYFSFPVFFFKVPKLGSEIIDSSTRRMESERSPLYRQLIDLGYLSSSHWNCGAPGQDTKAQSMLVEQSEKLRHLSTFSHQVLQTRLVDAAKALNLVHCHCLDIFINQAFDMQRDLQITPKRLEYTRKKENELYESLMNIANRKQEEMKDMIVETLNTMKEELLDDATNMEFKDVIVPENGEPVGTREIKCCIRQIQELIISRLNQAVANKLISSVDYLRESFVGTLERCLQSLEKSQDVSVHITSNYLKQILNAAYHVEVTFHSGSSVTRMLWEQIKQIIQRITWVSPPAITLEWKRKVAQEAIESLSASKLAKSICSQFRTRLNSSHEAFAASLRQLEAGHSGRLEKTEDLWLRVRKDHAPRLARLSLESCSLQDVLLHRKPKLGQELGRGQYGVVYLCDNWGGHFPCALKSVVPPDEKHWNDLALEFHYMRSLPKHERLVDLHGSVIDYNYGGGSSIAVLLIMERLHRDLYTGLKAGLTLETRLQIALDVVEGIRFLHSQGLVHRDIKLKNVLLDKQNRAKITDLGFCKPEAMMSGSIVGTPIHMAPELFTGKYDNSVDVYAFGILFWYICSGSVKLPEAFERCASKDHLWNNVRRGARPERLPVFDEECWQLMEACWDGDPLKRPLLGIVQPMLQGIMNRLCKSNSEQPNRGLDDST
As to the kind of experiment: Inhibition of human RIPK5 at 500 nM by HotSpot assay relative to control.

The nature of assay [5]: Inhibition of di-phosphorylated human Insulin receptor (978 to 1283 residues) C981S mutant kinase domain expressed in baculovirus infected Sf9 cells incubated for 1 hr by [gamma-33P]ATP assay.
In assay [6] the target is CDK3/Cyclin E (Homo sapiens) (UniProt P24864+Q00526). As to the kind of experiment: Inhibition of human CDK3/cyclin E at 18.6 nM by HotSpot assay relative to control. Format: protein-complex assay.
The target in assay [7] is Vascular endothelial growth factor receptor 1 (Homo sapiens) (UniProt P17948). The assay is described as follows: Inhibition of human FLT1 at 18.6 nM by HotSpot assay relative to control.
Assay [8] deals with T3, Testis-specific serine/threonine-protein kinase 2 (Homo sapiens) (UniProt Q96PF2).
T3 sequence (whole entry): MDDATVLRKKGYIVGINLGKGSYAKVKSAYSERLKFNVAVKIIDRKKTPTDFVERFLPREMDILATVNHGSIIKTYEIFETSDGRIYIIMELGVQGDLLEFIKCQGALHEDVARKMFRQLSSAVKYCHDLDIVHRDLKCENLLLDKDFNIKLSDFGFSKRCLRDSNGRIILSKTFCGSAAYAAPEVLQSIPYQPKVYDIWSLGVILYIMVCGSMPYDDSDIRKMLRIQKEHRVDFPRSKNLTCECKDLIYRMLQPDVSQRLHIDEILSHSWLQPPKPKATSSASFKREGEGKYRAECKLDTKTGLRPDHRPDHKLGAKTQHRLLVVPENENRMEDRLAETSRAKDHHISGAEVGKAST
As to the kind of experiment: Inhibition of human TSSK2 at 18.6 nM by HotSpot assay relative to control.

Assay [9] deals with Ephrin type-A receptor 5 (Homo sapiens) (UniProt P54756). As to the kind of experiment: Inhibition of human EPHA5 at 18.6 nM by HotSpot assay relative to control.
The target in assay [10] is Receptor tyrosine-protein kinase erbB-4 (Homo sapiens) (UniProt Q15303). The assay is described as follows: Inhibition of human ERBB4 at 18.6 nM by HotSpot assay relative to control.

Active and inactive are the calls of the source. The calls are words filed in the database; no cut-off is given here.

Chain of Focal adhesion kinase 1 (Homo sapiens) (Q05397 2-1052 limits assumed): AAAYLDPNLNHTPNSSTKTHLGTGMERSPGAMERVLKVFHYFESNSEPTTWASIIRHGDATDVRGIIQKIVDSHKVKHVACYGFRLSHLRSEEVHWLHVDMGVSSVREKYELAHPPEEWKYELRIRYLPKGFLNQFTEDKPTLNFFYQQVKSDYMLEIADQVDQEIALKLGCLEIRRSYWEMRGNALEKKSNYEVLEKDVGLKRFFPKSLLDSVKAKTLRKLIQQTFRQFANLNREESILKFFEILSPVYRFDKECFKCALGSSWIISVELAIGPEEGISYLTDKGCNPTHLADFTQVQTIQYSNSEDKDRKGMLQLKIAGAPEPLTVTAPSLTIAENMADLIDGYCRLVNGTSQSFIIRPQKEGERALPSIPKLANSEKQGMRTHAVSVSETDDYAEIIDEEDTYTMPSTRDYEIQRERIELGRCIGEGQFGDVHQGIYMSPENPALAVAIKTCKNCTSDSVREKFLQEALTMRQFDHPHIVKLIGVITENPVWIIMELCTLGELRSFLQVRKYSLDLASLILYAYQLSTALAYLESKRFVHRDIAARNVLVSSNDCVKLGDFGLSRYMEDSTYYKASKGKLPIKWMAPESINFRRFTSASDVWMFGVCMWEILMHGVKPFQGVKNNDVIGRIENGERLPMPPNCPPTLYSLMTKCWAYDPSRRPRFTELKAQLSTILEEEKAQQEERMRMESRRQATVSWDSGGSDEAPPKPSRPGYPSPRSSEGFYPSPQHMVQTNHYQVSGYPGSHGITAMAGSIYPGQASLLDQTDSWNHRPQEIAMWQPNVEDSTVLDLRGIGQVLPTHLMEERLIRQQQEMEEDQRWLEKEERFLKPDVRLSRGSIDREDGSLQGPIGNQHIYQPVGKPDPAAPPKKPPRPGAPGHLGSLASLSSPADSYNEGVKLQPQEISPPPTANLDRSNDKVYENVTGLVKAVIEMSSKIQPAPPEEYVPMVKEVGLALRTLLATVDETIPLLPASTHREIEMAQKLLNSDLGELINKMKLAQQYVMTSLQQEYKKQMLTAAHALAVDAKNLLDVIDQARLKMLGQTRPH
Chain of Receptor tyrosine-protein kinase erbB-4 (Homo sapiens) (Q15303 whole entry): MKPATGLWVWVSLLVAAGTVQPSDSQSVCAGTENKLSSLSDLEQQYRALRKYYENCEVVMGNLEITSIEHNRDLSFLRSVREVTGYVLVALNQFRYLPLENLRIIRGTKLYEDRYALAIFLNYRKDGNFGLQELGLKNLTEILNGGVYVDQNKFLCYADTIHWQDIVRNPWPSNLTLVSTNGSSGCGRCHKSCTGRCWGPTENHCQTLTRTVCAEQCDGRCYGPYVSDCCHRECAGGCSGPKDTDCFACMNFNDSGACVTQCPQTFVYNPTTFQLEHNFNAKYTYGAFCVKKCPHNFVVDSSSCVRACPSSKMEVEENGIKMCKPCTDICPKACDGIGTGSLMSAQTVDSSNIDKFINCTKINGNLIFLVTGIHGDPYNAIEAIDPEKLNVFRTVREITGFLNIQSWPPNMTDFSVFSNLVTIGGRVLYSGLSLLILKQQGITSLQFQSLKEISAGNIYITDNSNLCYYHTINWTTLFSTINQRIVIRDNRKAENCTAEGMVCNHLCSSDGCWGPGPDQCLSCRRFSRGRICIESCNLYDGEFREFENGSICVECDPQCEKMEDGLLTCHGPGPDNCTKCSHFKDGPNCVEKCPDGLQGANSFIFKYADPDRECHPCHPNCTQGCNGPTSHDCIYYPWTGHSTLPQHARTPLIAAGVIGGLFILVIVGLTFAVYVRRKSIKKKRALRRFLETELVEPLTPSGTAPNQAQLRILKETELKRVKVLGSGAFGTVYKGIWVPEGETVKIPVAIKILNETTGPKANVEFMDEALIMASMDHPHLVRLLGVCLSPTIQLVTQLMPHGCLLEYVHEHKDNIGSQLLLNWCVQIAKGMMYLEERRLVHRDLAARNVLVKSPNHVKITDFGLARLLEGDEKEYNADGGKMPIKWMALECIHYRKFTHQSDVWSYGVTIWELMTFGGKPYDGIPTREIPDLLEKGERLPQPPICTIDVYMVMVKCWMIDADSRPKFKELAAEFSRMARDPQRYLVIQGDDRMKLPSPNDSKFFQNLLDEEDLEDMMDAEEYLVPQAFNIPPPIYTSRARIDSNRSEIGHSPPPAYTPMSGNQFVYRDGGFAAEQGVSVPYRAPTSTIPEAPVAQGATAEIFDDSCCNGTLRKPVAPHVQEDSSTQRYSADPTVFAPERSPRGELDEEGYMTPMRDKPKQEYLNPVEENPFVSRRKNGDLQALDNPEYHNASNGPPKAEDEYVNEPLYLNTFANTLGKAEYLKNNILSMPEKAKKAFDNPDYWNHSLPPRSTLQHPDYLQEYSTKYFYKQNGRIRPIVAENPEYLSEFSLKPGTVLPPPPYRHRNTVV
Chain of Calcium/calmodulin-dependent protein kinase type II subunit alpha (Homo sapiens) (Q9UQM7 whole entry): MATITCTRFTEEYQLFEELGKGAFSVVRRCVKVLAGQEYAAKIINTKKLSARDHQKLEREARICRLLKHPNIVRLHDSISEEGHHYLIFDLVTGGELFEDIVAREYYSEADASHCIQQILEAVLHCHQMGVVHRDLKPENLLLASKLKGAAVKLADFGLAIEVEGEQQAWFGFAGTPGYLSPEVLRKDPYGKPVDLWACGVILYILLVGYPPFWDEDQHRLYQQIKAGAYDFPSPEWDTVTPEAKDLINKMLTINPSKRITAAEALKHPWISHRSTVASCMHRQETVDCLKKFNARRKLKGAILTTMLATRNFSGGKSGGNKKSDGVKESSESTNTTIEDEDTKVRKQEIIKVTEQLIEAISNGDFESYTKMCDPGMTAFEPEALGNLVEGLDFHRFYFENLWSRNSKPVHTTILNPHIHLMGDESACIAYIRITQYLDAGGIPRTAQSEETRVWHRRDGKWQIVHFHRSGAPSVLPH
Chain of Ephrin type-A receptor 5 (Homo sapiens) (P54756 whole entry): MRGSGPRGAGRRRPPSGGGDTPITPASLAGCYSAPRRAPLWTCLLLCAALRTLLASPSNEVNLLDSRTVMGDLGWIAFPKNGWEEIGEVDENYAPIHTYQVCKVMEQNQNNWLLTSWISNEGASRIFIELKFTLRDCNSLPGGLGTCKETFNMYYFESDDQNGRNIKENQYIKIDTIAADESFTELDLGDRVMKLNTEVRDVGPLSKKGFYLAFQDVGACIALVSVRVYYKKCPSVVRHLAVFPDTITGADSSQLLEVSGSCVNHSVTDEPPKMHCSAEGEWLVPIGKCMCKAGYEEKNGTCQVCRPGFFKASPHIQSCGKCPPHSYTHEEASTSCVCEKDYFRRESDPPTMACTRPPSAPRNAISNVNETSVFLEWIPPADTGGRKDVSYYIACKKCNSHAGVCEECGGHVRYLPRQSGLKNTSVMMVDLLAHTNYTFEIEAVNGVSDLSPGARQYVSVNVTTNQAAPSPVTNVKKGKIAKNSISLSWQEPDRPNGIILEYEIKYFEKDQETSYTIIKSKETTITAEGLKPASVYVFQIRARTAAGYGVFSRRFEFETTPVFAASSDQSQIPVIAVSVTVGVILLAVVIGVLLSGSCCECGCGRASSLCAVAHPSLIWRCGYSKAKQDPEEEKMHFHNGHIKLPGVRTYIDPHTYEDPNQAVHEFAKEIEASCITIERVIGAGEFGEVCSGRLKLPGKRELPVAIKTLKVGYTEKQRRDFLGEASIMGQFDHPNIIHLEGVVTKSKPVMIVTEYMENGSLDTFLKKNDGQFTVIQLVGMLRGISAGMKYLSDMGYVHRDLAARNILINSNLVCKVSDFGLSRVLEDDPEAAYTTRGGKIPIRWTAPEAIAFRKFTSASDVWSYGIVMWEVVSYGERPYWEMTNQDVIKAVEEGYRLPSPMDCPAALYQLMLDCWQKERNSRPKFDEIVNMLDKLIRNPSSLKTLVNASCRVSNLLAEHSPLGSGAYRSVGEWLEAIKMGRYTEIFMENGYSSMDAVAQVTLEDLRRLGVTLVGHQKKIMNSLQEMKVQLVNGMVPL
Chain of CDK3/Cyclin E (Homo sapiens) (P24864 whole entry, looked up): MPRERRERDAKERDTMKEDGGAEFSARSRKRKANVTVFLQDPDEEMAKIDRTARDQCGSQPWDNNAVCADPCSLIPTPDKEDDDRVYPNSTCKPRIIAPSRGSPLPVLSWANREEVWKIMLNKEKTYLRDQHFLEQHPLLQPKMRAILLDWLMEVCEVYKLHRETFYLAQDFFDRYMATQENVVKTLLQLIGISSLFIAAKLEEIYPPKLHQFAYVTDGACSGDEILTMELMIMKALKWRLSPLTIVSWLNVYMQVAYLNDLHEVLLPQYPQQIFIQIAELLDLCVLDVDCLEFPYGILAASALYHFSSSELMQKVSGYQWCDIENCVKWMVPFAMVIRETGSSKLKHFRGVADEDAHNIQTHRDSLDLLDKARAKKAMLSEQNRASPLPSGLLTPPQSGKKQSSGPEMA
Chain of CDK3/Cyclin E (Homo sapiens) (Q00526 whole entry, looked up): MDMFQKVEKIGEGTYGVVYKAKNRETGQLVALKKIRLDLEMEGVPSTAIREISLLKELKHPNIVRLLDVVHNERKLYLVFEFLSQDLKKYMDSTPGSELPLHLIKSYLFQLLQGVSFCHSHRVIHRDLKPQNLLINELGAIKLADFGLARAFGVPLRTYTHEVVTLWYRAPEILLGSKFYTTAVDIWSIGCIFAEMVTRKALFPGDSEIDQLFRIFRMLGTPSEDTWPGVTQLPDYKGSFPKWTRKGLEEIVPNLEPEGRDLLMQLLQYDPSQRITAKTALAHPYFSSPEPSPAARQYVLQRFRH

What is called inhibition is the relative decrease from the control value, in per cent. As to `C[C@@]1(C(=O)Nc2ccc(F)nc2)CCCN1c1nc(Nc2cc(C3CC3)n[nH]2)c2cccn2n1`, the inhibition in [1] was -2.76%; in [2], 1.65%; in assay [3], 2.64%.
For `Nc1n[nH]c2nnc(-c3c(-c4ccccc4)nn4ccccc34)cc12`, in assay [4], the inhibition turned out to be 4.06%.
For the molecule `Oc1n[nH]c2nnc(-c3c(-c4ccccc4)nn4ccccc34)cc12`, the inhibition result in [5] was “inactive”.
On to `C[C@]1(O)C[C@@H](c2nc(-c3ccc4ccc(-c5ccccc5)nc4c3)c3c(N)nccn32)C1`, for which the inhibition was 0.86% in assay [6]; -4.23% in assay [7]; -3.7% in assay [8]; 0.67% in assay [9]; 2.92% in [10].
